According to ChEMBL document CHEMBL5370525, “Antibiotics with novel mode of action as new weapons to fight antimicrobial resistance” (Eur J Med Chem, 2023):
pKi: −log10 of the molar value. ≈ marks a conversion by molar mass, not a printed value.

How the values were obtained:
Staphylococcus aureus [1] = assay: Antibacterial activity against methicillin-resistant Staphylococcus aureus ATCC 33591 infected in mouse assessed as log reduction in bacterial CFU in thigh 120 mg/kg, po measured after 24 hrs; format: functional
[2] = Cytotoxicity against MDCK cells assessed as inhibition of cell growth by MTT assay; format: toxicity, cell-based, Canis lupus familiaris; settings: dog
[3] = Volume of distribution at steady state in BALB/c mouse at 24 mg/kg, iv by LC/MS-MS analysis; format: ADME, organism-based; settings: in vivo, read-out: Vdss
Staphylococcus aureus [4] = assay: Antibacterial activity against Linezolid non-susceptible Staphylococcus aureus clinical isolate assessed as inhibition of bacterial growth by CLSI-based broth microdilution method; format: functional
Staphylococcus aureus [5] = assay: Antibacterial activity against Daptomycin non-susceptible Staphylococcus aureus clinical isolate assessed as inhibition of bacterial growth by CLSI-based broth microdilution method; format: functional
Staphylococcus aureus [6] = assay: Antibacterial activity against Meticillin-Resistant Staphylococcus aureus clinical isolate assessed as inhibition of bacterial growth by CLSI-based broth microdilution method; format: functional
[7] = Oral bioavailability in BALB/c mouse at 32 mg/kg by LC/MS-MS analysis; format: ADME, organism-based; settings: in vivo
Staphylococcus aureus [8] = assay: Antibacterial activity against Vancomycin-intermediate Staphylococcus aureus clinical isolate assessed as inhibition of bacterial growth by CLSI-based broth microdilution method; format: functional
HeLa = assay: Cytotoxicity against human HeLa cells assessed as inhibition of cell growth by MTT assay; format: functional, cell-based
Staphylococcus aureus [9] = assay: Antibacterial activity against Vancomycin-resistant Staphylococcus aureus clinical isolate assessed as inhibition of bacterial growth by CLSI-based broth microdilution method; format: functional
[10] = Toxicity in Syrian hamster infected with clindamycin resistant Clostridium difficile ATCC 43596 assessed as animal survival at 5 mg/kg, po administered twice a day and measured after 25 days; format: organism-based, Mesocricetus auratus; settings: in vivo, 600 h, time 25 day
[11] = Toxicity in Syrian hamster infected with clindamycin resistant Clostridium difficile ATCC 43596 assessed as survival rate at 0.5 mg/kg, po administered twice a day and measured after 33 days; format: organism-based, Mesocricetus auratus; settings: in vivo, 792 h, time 33 day
[12] = Toxicity in Syrian hamster infected with clindamycin resistant Clostridium difficile ATCC 43596 assessed as survival rate at 5 mg/kg, po administered twice a day and measured after 33 days; format: organism-based, Mesocricetus auratus; settings: in vivo, 792 h, time 33 day
[13] = Plasma protein binding in dog at 0.2 to 10 ug/ml by equilibrium dialysis; format: ADME, cell-free, Canis lupus familiaris; settings: at 0.2 to 10 µg/mL, dose 0.2-10 µg/ml, read-out: PPB
[14] = Plasma protein binding in Sprague-Dawley rat at 0.2 to 10 ug/ml by equilibrium dialysis; format: ADME, cell-free; settings: at 0.2 to 10 µg/mL, dose 0.2-10 µg/ml, read-out: PPB
[15] = Elimination half life in mouse at 0.3 to 1 mg/kg, po incubated for 24 hrs by LC-MS/MS analysis; format: ADME, organism-based; settings: in vivo, dose 0.3-1 mg/kg, read-out: beta t1/2 (converted)
Staphylococcus aureus [16] = assay: Post antibiotic effect against methicillin sensitive Staphylococcus aureus 29213 at 32 times of MIC incubated for 4 hrs by; format: functional
[17] = Cmax in mouse at 0.3 mg/kg, po incubated for 24 hrs by LC-MS-MS analysis; format: ADME, organism-based; design: dose 0.3 mg/kg, time 24 hrs, route po; settings: in vivo
Staphylococcus aureus [18] = assay: Antibacterial activity against Staphylococcus aureus clinical isolate assessed as bacterial growth inhibtion by CLSI-based broth microdilution method; format: functional
Staphylococcus aureus [19] = assay: Post antibiotic effect against methicillin sensitive Staphylococcus aureus 29213 at 128 times of MIC incubated for 4 hrs by; format: functional
Staphylococcus aureus [20] = assay: Antibacterial activity against Staphylococcus aureus smith infected oral dosed CD-1 mouse; format: functional
[21] = AUC (0 to t) in mouse at 0.6 mg/kg, po incubated for 24 hrs by LC-MS-MS analysis; format: ADME, organism-based; design: dose 0.6 mg/kg, time 24 hrs, route po; settings: in vivo
[22] = Plasma protein binding in human at 0.2 to 10 ug/ml by equilibrium dialysis; format: ADME, cell-free; settings: at 0.2 to 10 µg/mL, dose 0.2-10 µg/ml, read-out: PPB
[23] = Plasma protein binding in mouse at 0.2 to 10 ug/ml by equilibrium dialysis; format: ADME, cell-free; settings: at 0.2 to 10 µg/mL, dose 0.2-10 µg/ml, read-out: PPB
[24] = Cmax in mouse at 1 mg/kg, po incubated for 24 hrs by LC-MS-MS analysis; format: ADME, organism-based; design: time 24 hrs, dose 1 mg/kg, route po; settings: in vivo
Staphylococcus aureus [25] = assay: Antibacterial activity against Staphylococcus aureus smith infected CD-1 mouse assessed as survival rate at 1 mg/kg, po relative to control; format: functional
[26] = Cmax in mouse at 0.6 mg/kg, po incubated for 24 hrs by LC-MS-MS analysis; format: ADME, organism-based; design: dose 0.6 mg/kg, time 24 hrs, route po; settings: in vivo
[27] = AUC (0 to t) in mouse at 0.3 mg/kg, po incubated for 24 hrs by LC-MS-MS analysis; format: ADME, organism-based; design: dose 0.3 mg/kg, time 24 hrs, route po; settings: in vivo
[28] = AUC (0 to t) in mouse at 1 mg/kg, po incubated for 24 hrs by LC-MS-MS analysis; format: ADME, organism-based; design: dose 1 mg/kg, time 24 hrs, route po; settings: in vivo
[29] = Oral bioavailability in Sprague-Dawley rat; format: ADME, organism-based; settings: in vivo
Bifidobacterium sp. = assay: Antibacterial activity against Bifidobacterium sp. clinical isolates assessed as inhibition of bacterial growth incubated for 48 hrs by CLSI-based Serial 2-fold dilution; format: functional
[30] = Binding affinity to N-terminal His-tagged Full-length Escherichia coli MetRS2 expressed in Escherichia coli assessed as inhibition constant by tRNA aminoacylation/ATP:PPi assay
Klebsiella pneumoniae = assay: Antibacterial activity against Klebsiella pneumoniae clinical isolates assessed as inhibition of bacterial growth incubated for 44 hrs by CLSI-based broth microdilution assay; format: functional
[31] = Binding affinity to N-terminal His-tagged Full-length Staphylococcus aureus MetRS1 expressed in Escherichia coli assessed as inhibition constant by tRNA aminoacylation/ATP:PPi assay
Acinetobacter baumannii = assay: Antibacterial activity against Acinetobacter baumannii clinical isolates assessed as inhibition of bacterial growth incubated for 44 hrs by CLSI-based broth microdilution assay; format: functional
Actinomyces sp. = assay: Antibacterial activity against Actinomyces sp. clinical isolates assessed as inhibition of bacterial growth incubated for 48 hrs by CLSI-based Serial 2-fold dilution; format: functional
[32] = Oral bioavailability in Beagle dog; format: ADME, organism-based, Canis lupus familiaris; settings: in vivo
[33] = Binding affinity to N-terminal His-tagged Full-length human cytoplasmic MetRS2 expressed in Escherichia coli assessed as inhibition constant by tRNA aminoacylation/ATP:PPi assay; format: subcellular, Cytoplasm
[34] = Binding affinity to N-terminal His-tagged Full-length Clostridium difficile MetRS1 expressed in Escherichia coli assessed as inhibition constant by tRNA aminoacylation/ATP:PPi assay; design: species or system Clostridioides difficile
[35] = Binding affinity to N-terminal His-tagged Full-length Streptococcus pneumoniae MetRS1 expressed in Escherichia coli assessed as inhibition constant by tRNA aminoacylation/ATP:PPi assay
[36] = Binding affinity to N-terminal His-tagged Full-length human mitochondrial MetRS1 expressed in Escherichia coli assessed as inhibition constant by tRNA aminoacylation/ATP:PPi assay; format: mitochondria, Mitochondria
Escherichia coli = assay: Antibacterial activity against Escherichia coli clinical isolates assessed as inhibition of bacterial growth incubated for 44 hrs by CLSI-based broth microdilution assay; format: functional
Staphylococcus aureus [37] = assay: Antibacterial activity against Meticillin-resistant Staphylococcus aureus clinical isolates assessed as inhibition of bacterial growth incubated for 44 hrs by CLSI-based broth microdilution assay; format: functional
Enterococcus faecium = assay: Antibacterial activity against Vancomycin-resistant Enterococcus faecium clinical isolates assessed as inhibition of bacterial growth incubated for 44 hrs by CLSI-based broth microdilution assay; format: functional
Clostridioides difficile [38] = assay: Antibacterial activity against Clostridium difficile clinical isolates assessed as inhibition of bacterial growth incubated for 44 hrs by CLSI-based broth microdilution assay; format: functional
[39] = Oral bioavailability in hamster; format: ADME, organism-based, Mesocricetus auratus; settings: in vivo
[40] = Binding affinity to N-terminal His-tagged Full-length Haemophilus influenzae MetRS2 expressed in Escherichia coli assessed as inhibition constant by tRNA aminoacylation/ATP:PPi assay
Lactobacillus sp. = assay: Antibacterial activity against Lactobacillus sp. clinical isolates assessed as inhibition of bacterial growth incubated for 48 hrs by CLSI-based Serial 2-fold dilution; format: functional
Pseudomonas aeruginosa = assay: Antibacterial activity against Pseudomonas aeruginosa clinical isolates assessed as inhibition of bacterial growth incubated for 44 hrs by CLSI-based broth microdilution assay; format: functional
Clostridioides difficile [41] = assay: Antibacterial activity against Clostridium difficile clinical isolates assessed as inhibition of bacterial growth; format: functional

CN1CCC(C(=O)NC(=O)c2c(F)ccc(OCc3nc4cc(C(F)(F)F)cnc4s3)c2F)CC1
log(activity) (Staphylococcus aureus [1]): 2 | IC50 [2]: > 120 µg/mL | Vd [3]: 2.02 L/kg | MIC (Staphylococcus aureus [4]): 1 µg/mL (≈ 1.94 µM) | MIC (Staphylococcus aureus [5]): 1 µg/mL (≈ 1.94 µM) | MIC (Staphylococcus aureus [6]): 1 µg/mL (≈ 1.94 µM) | bioavailability [7]: 1% | MIC (Staphylococcus aureus [8]): 1 µg/mL (≈ 1.94 µM) | IC50 (HeLa): > 120 µg/mL | MIC (Staphylococcus aureus [9]): 1 µg/mL (≈ 1.94 µM)

Cl.Cl.O=c1cc(NCCCN[C@@H]2CCOc3c(Br)cc(Br)cc32)[nH]c2ccsc12
Activity [10]: Toxic | Survival [11]: 62% | Survival [12]: 75%

Cc1c(CN(C)C(=O)/C=C/c2cnc3c(c2)CCC(=O)N3COP(=O)(O)O)oc2ccccc12 [AFABICIN]
fraction unbound [13]: < 0.05 | fraction unbound [14]: < 0.05 | half-life [15]: 5 h | PAE (Staphylococcus aureus [16]): 0.1 h | Cmax [17]: 154 ng/mL | MIC90 (Staphylococcus aureus [18]): < 0.015 µg/mL | PAE (Staphylococcus aureus [19]): 1.1 h | ED50 (Staphylococcus aureus [20]): 0.15 mg/kg | AUC(0-t) at 24 h [21]: 196 ng·h/mL | fraction unbound [22]: < 0.05 | fraction unbound [23]: < 0.05 | Cmax [24]: 304 ng/mL | survival at 1 mg/kg (Staphylococcus aureus [25]): 100% | Cmax [26]: 196 ng/mL | AUC(0-t) at 24 h [27]: 367 ng·h/mL | AUC(0-t) at 24 h [28]: 1030 ng·h/mL

O=c1cc(NCCCN[C@@H]2CCOc3c(Br)cc(Br)cc32)[nH]c2ccsc12 [CRS-3123]
bioavailability [29]: < 1% | MIC (Bifidobacterium sp.): > 32 µg/mL | pKi [30]: 5.72 | MIC (Klebsiella pneumoniae): > 32 µg/mL | pKi [31]: 10.77 | MIC (Acinetobacter baumannii): > 32 µg/mL | MIC (Actinomyces sp.): > 32 µg/mL | bioavailability [32]: < 1% | pKi [33]: < 4.70 | pKi [34]: 10.70 | pKi [35]: 10.10 | pKi [36]: 7.55 | MIC (Escherichia coli): > 32 µg/mL | MIC (Staphylococcus aureus [37]): 0.015 µg/mL (≈ 0.0292 µM) | MIC (Enterococcus faecium): < 0.004 µg/mL | MIC (Clostridioides difficile [38]): 0.5 µg/mL (≈ 0.974 µM) | bioavailability [39]: 0.6% | pKi [40]: 6.75 | MIC (Lactobacillus sp.): > 32 µg/mL | MIC (Pseudomonas aeruginosa): > 32 µg/mL

CCc1c(Cl)c(O)c(Cl)c(O)c1C(=O)O[C@H]1[C@H](O)[C@H](OC)[C@H](OC/C2=C\C=C\C[C@H](O)/C(C)=C/[C@H](CC)[C@@H](O[C@@H]3OC(C)(C)[C@@H](OC(=O)C(C)C)[C@H](O)[C@@H]3O)/C(C)=C/C(C)=C/C[C@@H]([C@@H](C)O)OC2=O)O[C@@H]1C [FIDAXOMICIN]
MIC (Clostridioides difficile [41]): 0.15 µg/mL (≈ 0.142 µM)
